In patent US11873291B2, “Quinoline cGAS antagonist compounds” (ImmuneSensor Therapeutics, Inc., priority 2020, dated 2024) one finds IC50 data, which are given here for 74 molecules.

SMILES strings stand for the structures. A value given as a limit tells only on which side of the number the result lay.

What is called IC50 is the concentration at which inhibition is half-maximal.

The target in the assay is T1, recombinant human cGAS (aa147-522) (Homo sapiens, UniProt Q8N884).
T1 construct: recombinant human cGAS (aa147-522); His6-SUMO (cleaved yes); made in house; host or cells: E. coli BL21/pLys
T1 sequence (Q8N884 147-522): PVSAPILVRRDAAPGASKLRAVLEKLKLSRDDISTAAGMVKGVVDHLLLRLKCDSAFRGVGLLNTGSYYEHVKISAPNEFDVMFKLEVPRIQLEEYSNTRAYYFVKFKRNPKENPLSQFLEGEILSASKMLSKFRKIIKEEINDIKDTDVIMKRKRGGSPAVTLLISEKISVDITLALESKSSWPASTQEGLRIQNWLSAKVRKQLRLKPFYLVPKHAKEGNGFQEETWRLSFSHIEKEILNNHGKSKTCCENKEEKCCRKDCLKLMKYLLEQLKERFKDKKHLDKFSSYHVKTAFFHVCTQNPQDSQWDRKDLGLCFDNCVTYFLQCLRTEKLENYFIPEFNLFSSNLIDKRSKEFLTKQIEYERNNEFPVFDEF
Briefly: In vitro inhibition assay of cGAS activity (ATP consumption, KinaseGlo Max). The class given is biochemical. The following applies: Table 2, read-out: cGAS Inhibition Results IC50. In a few lines: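 De-tagged recombinant human cGAS (aa147-522, 1.5 μg/mL) was incubated 20 min at 37 °C with herring testis DNA, 6.6 μM ATP and 0.1 mM GTP in Tris pH 7.5/MgCl2 buffer plus serial compound dilutions. Remaining ATP was read by KinaseGlo Max luminescence, and IC50 was fitted from % ATP consumption versus log concentration.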
For orientation: Kinase-Glo reads ATP consumption through a luciferase reaction.

As to `O=C(O)[C@@H]1CCCN1c1cc(-c2cn[nH]c2)nc2c(Cl)c(Cl)ccc12` [I-291], the 50% inhibitory concentration (IC50) is 2 to 30 µM.

Take `O=C(O)[C@H]1CCCN1c1cc(-c2cn[nH]c2)nc2c(Cl)c(Cl)ccc12` [I-292]: the 50% inhibitory concentration (IC50) fell in the range of 2 to 30 µM.

Turning to `Cc1cc(NCC(=O)O)c2ccc(Cl)c(Cl)c2n1` [I-293], the half-maximal inhibitory concentration (IC50) lay in the range of 2 to 30 µM.

Take `O=C(O)CNc1cc(Cl)nc2c(Cl)c(Cl)ccc12` [I-294]: the IC50 was more than 30 µM.

For `NS(=O)(=O)CCNc1cc(Cl)c2ccc(Cl)c(Cl)c2n1` [I-295], the half-maximal inhibitory concentration (IC50) was more than 30 µM.

For `NS(=O)(=O)CCNc1ccc2ccc(Cl)c(Cl)c2n1` [I-296], the IC50 was more than 30 µM.

On to `CN(CCO)c1cc(-c2cn[nH]c2)nc2c(Cl)c(Cl)ccc12` [I-297], for which the IC50 was more than 30 µM.

For the molecule `OC[C@@H]1CCCN1c1cc(-c2cn[nH]c2)nc2c(Cl)c(Cl)ccc12` [I-298], the half-maximal inhibitory concentration (IC50) is more than 30 µM.

In the case of `O=C1CN(c2cc(-c3cn[nH]c3)nc3c(Cl)c(Cl)ccc23)CCN1` [I-299], the IC50 was more than 30 µM.

For `O=C(O)CNc1cc(-c2cn[nH]c2)nc2cc(Cl)cc(Cl)c12` [I-300], the half-inhibitory concentration (IC50) was more than 30 µM.

For `NS(=O)(=O)CCNc1cc(-c2cn[nH]c2)nc2ccc(C(F)(F)F)cc12` [I-301], the IC50 is more than 30 µM.

Consider `Cc1cc(N2CCNC(=O)C2)c2ccc(Cl)c(Cl)c2n1` [I-302], for which the IC50 is more than 30 µM.

In the case of `Cc1cc(N2CCS(=O)(=O)CC2)c2ccc(Cl)c(Cl)c2n1` [I-303], the IC50 was more than 30 µM.

Turning to `Cc1cc(NCCO)c2ccc(Cl)c(Cl)c2n1` [I-304], the half-maximal inhibitory concentration (IC50) was more than 30 µM.

Regarding `Cc1cc(N2CCCNC(=O)C2)c2ccc(Cl)c(Cl)c2n1` [I-305], the IC50 is more than 30 µM.

With `O=C1CN(c2cc(Cl)nc3c(Cl)c(Cl)ccc23)CCN1` [I-307], the concentration for half-maximal inhibition (IC50) was more than 30 µM.

For `Cc1cc(NCCS(N)(=O)=O)c2ccc(Cl)c(Cl)c2n1` [I-308], the half-inhibitory concentration (IC50) is more than 30 µM.

As to `Cc1cc(NCCC(=O)O)c2ccc(Cl)c(Cl)c2n1` [I-309], the IC50 is more than 30 µM.

With `Cc1cc(N2CCNC(=O)CC2)c2ccc(Cl)c(Cl)c2n1` [I-310], the half-maximal inhibitory concentration (IC50) is more than 30 µM.

In the case of `Cc1cc(N2CCCC(O)CC2)c2ccc(Cl)c(Cl)c2n1` (centres unmarked) [I-311], the IC50 is more than 30 µM.

For the molecule `Clc1cc(N2CCNCC2)c2ccc(Cl)c(Cl)c2n1` [I-312], the 50% inhibitory concentration (IC50) was more than 30 µM.

In the case of `Cc1cc(NCC(N)=O)c2ccc(Cl)c(Cl)c2n1` [I-313], the IC50 was more than 30 µM.

Regarding `Cc1cc(N(C)CC(N)=O)c2ccc(Cl)c(Cl)c2n1` [I-314], the IC50 is more than 30 µM.

Consider `Cc1cc(NC2CCNC2=O)c2ccc(Cl)c(Cl)c2n1` (centres unmarked) [I-315], for which the IC50 was more than 30 µM.

Regarding `Cc1cc(NC2CCCCC2C(=O)O)c2ccc(Cl)c(Cl)c2n1` (centres unmarked) [I-316], the 50% inhibitory concentration (IC50) was more than 30 µM.

As to `Cc1cc(N2CCCC(S(N)(=O)=O)C2)c2ccc(Cl)c(Cl)c2n1` (centres unmarked) [I-317], the half-inhibitory concentration (IC50) was more than 30 µM.

With `NS(=O)(=O)CCNc1cc(NCC(=O)O)c2ccc(Cl)c(Cl)c2n1` [I-318, (7,8-dichloro-2-((2-sulfamoylethyl)amino)quinolin-4-yl)glycine], the 50% inhibitory concentration (IC50) is more than 30 µM.

Take `NS(=O)(=O)CCNc1cc(NCC(=O)O)nc2c(Cl)c(Cl)ccc12` [I-319, (7,8-dichloro-4-((2-sulfamoylethyl)amino)quinolin-2-yl)glycine]: the IC50 was more than 30 µM.

Consider `CN(CCC(=O)NCCC(=O)O)c1cc(-c2cn[nH]c2)c2ccc(Cl)c(Cl)c2n1` [I-320], for which the IC50 is less than 2 µM.

Turning to `CN(CCC(=O)NCC(=O)O)c1cc(-n2ccnc2)c2ccc(Cl)c(Cl)c2n1` [I-321], the half-inhibitory concentration (IC50) was less than 2 µM.

For the molecule `O=C(O)CNC(=O)[C@@H]1CCCN1c1cc(-n2ccnc2)c2ccc(Cl)c(Cl)c2n1` [I-323], the concentration for half-maximal inhibition (IC50) is less than 2 µM.

On to `O=C(O)CCNC(=O)[C@@H]1CCCN1c1cc(-n2ccnc2)c2ccc(Cl)c(Cl)c2n1` [I-324], for which the half-maximal inhibitory concentration (IC50) was less than 2 µM.

For `O=C(O)[C@@H]1CCCN1C(=O)C[C@@H]1CCCN1c1cc(-c2cn[nH]c2)c2ccc(Cl)c(Cl)c2n1` [I-325], the IC50 is less than 2 µM.

Consider `O=C(O)CNC(=O)C[C@@H]1CCCN1c1cc(-c2cn[nH]c2)c2ccc(Cl)c(Cl)c2n1` [I-326], for which the 50% inhibitory concentration (IC50) is less than 2 µM.

`O=C(O)[C@@H]1CN(c2cc(-c3cn[nH]c3)c3ccc(Cl)c(Cl)c3n2)CCO1` [I-327]: the concentration for half-maximal inhibition (IC50) was less than 2 µM.

Turning to `O=C(O)[C@H]1CN(c2cc(-c3cn[nH]c3)c3ccc(Cl)c(Cl)c3n2)CCO1` [I-328], the concentration for half-maximal inhibition (IC50) was less than 2 µM.

`O=[PH](O)OCC1CCCN(c2cc(-c3cn[nH]c3)c3ccc(Cl)c(Cl)c3n2)C1` (centres unmarked) [I-329]: the IC50 is less than 2 µM.

For the molecule `O=[PH](O)OCCC1CCCN(c2cc(-c3cn[nH]c3)c3ccc(Cl)c(Cl)c3n2)C1` (centres unmarked) [I-330], the IC50 is less than 2 µM.

`O=C(O)[C@H]1CCCN(c2cc(-n3ccnc3)c3ccc(Cl)cc3n2)C1` [I-331]: the IC50 was in the range of 2 to 30 µM.

Regarding `O=C(O)C1CN(c2cc(-n3ccnc3)c3ccc(Cl)c(Cl)c3n2)CCC1O` (centres unmarked) [I-332], the IC50 was less than 2 µM.

Regarding `O=C(O)C1CCCCC1Nc1cc(-n2ccnc2)c2ccc(Cl)cc2n1` (centres unmarked) [I-333], the half-inhibitory concentration (IC50) is more than 30 µM.

Regarding `O=C1CN(c2cc(-n3ccnc3)c3ccc(Cl)c(Cl)c3n2)CC(C(=O)O)N1` (centres unmarked) [I-334], the 50% inhibitory concentration (IC50) is more than 30 µM.

For the molecule `O=C(O)CCS(=O)(=O)NC[C@@H]1CCCN1c1cc(-n2ccnc2)c2ccc(Cl)c(Cl)c2n1` [I-335], the IC50 is less than 2 µM.

As to `O=C(O)CNCCCc1cc(-c2cn[nH]c2)c2ccc(Cl)c(Cl)c2n1` [I-336, (3-(7,8-dichloro-4-(1H-pyrazol-4-yl)quinolin-2-yl)propyl)glycine], the half-maximal inhibitory concentration (IC50) lay in the range of 2 to 30 µM.

On to `CS(=O)(=O)N(CCCc1cc(-c2cn[nH]c2)c2ccc(Cl)c(Cl)c2n1)CC(=O)O` [I-337, N-(3-(7,8-dichloro-4-(1H-pyrazol-4-yl)quinolin-2-yl)propyl)-N-(methylsulfonyl) glycine], for which the IC50 is less than 2 µM.

With `CC(C)[C@H](NC(=O)C[C@@H]1CCCN1c1cc(-n2ccnc2)c2ccc(Cl)c(Cl)c2n1)C(=O)O` [I-338], the half-inhibitory concentration (IC50) was less than 2 µM.

As to `O=C(O)C1CCN(C(=O)C[C@@H]2CCCN2c2cc(-n3ccnc3)c3ccc(Cl)c(Cl)c3n2)C1` (some centres unmarked) [I-339], the IC50 was less than 2 µM.

On to `CN(CCC(=O)O)C(=O)C[C@@H]1CCCN1c1cc(-n2ccnc2)c2ccc(Cl)c(Cl)c2n1` [I-340], for which the half-maximal inhibitory concentration (IC50) was less than 2 µM.

On to `O=C(O)CNC(=O)[C@@H]1CN(c2cc(-c3cn[nH]c3)c3ccc(Cl)c(Cl)c3n2)CCO1` [I-341], for which the IC50 is less than 2 µM.

Consider `O=C(O)CCNC(=O)[C@@H]1CN(c2cc(-c3cn[nH]c3)c3ccc(Cl)c(Cl)c3n2)CCO1` [I-342], for which the 50% inhibitory concentration (IC50) was less than 2 µM.

In the case of `O=C(O)CNC(=O)[C@H]1CN(c2cc(-c3cn[nH]c3)c3ccc(Cl)c(Cl)c3n2)CCO1` [I-343], the IC50 lay in the range of 2 to 30 µM.

With `O=C(O)CCNC(=O)[C@H]1CN(c2cc(-c3cn[nH]c3)c3ccc(Cl)c(Cl)c3n2)CCO1` [I-344], the IC50 is less than 2 µM.

With `O=C(O)[C@@H]1[C@@H](O)CCN1c1cc(-n2ccnc2)c2ccc(Cl)c(Cl)c2n1` [I-345], the IC50 is less than 2 µM.

As to `O=C(CO)N[C@@H]1C[C@@H](C(=O)O)N(c2cc(-n3ccnc3)c3ccc(Cl)c(Cl)c3n2)C1` [I-346], the IC50 is less than 2 µM.

Regarding `CC(=O)N[C@@H]1C[C@@H](C(=O)O)N(c2cc(-n3ccnc3)c3ccc(Cl)c(Cl)c3n2)C1` [I-347], the concentration for half-maximal inhibition (IC50) is less than 2 µM.

As to `O=C(Nc1ccccc1)[C@@H]1CCCN1c1cc(-n2ccnc2)c2ccc(Cl)c(Cl)c2n1` [I-348], the IC50 was more than 30 µM.

As to `O=C(O)[C@@H]1C[C@@H](NS(=O)(=O)c2ccccc2)CN1c1cc(-n2ccnc2)c2ccc(Cl)c(Cl)c2n1` [I-349], the IC50 was less than 2 µM.

For `O=C(N[C@@H]1C[C@@H](C(=O)O)N(c2cc(-n3ccnc3)c3ccc(Cl)c(Cl)c3n2)C1)c1ccccc1` [I-350], the IC50 was less than 2 µM.

`CS(=O)(=O)N[C@@H]1C[C@@H](C(=O)O)N(c2cc(-n3ccnc3)c3ccc(Cl)c(Cl)c3n2)C1` [I-351]: the half-maximal inhibitory concentration (IC50) was less than 2 µM.

For `O=C(O)[C@@H]1CCN1c1cc(-c2cn[nH]c2)c2ccc(Cl)c(Cl)c2n1` [I-352], the IC50 lay within 2 to 30 µM.

Take `Clc1ccc2c(-n3ccnc3)cc(NCc3ccncc3)nc2c1` [I-353, 7-chloro-4-(1H-imidazol-1-yl)-N-(pyridin-4-ylmethyl)quinolin-2-amine]: the IC50 was more than 30 µM.

On to `Clc1ccc2c(-n3ccnc3)cc(NCCN3CCOCC3)nc2c1` [I-354], for which the half-inhibitory concentration (IC50) is more than 30 µM.

Consider `Clc1ccc2c(-n3ccnc3)cc(Nc3ccccc3)nc2c1` [I-355], for which the 50% inhibitory concentration (IC50) fell in the range of 2 to 30 µM.

Take `COC(=O)[C@H]1CCCN(c2cc(-n3ccnc3)c3ccc(Cl)cc3n2)C1` [I-356]: the half-maximal inhibitory concentration (IC50) is more than 30 µM.

In the case of `O=C(O)[C@@H]1CCCN(c2cc(-n3ccnc3)c3ccc(Cl)cc3n2)C1` [I-357], the IC50 is 2 to 30 µM.

On to `CC(C)N(CCN1CCOCC1)c1cc(-c2cn[nH]c2)c2ccc(Cl)c(Cl)c2n1` [I-358], for which the IC50 lay within 2 to 30 µM.

For `O=C(O)[C@H]1CCN1c1cc(-c2cn[nH]c2)c2ccc(Cl)c(Cl)c2n1` [I-359], the IC50 fell in the range of 2 to 30 µM.

On to `O=C(O)[C@@H]1C[C@H](Oc2ccccc2)CN1c1cc(-c2cn[nH]c2)c2ccc(Cl)c(Cl)c2n1` [I-360], for which the IC50 was less than 2 µM.

As to `O=C(O)[C@@H]1C[C@@H](Oc2ccccc2)CN1c1cc(-c2cn[nH]c2)c2ccc(Cl)c(Cl)c2n1` [I-361], the IC50 lay within 2 to 30 µM.

With `O=C(O)[C@@H]1C[C@@H](Oc2ccccc2)CN1c1cc(-n2ccnc2)c2ccc(Cl)c(Cl)c2n1` [I-362], the IC50 is more than 30 µM.

Regarding `O=C(O)C1CCCN(c2cc(-n3ccnc3)c3ccc(Cl)cc3n2)CC1` (centres unmarked) [I-363], the IC50 is 2 to 30 µM.

Take `COC(CN(C)c1cc(-n2ccnc2)c2ccc(Cl)c(Cl)c2n1)OC` [I-364]: the concentration for half-maximal inhibition (IC50) fell in the range of 2 to 30 µM.

For `O=C1CC(Nc2cc(-n3ccnc3)c3ccc(Cl)cc3n2)CCN1` (centres unmarked) [I-365], the IC50 was more than 30 µM.

Turning to `O=C(O)C1CCCC(Nc2cc(-n3ccnc3)c3ccc(Cl)cc3n2)C1` (centres unmarked) [I-366], the 50% inhibitory concentration (IC50) lay in the range of 2 to 30 µM.
